tested on: Myo5 SH3 domain; test: SPOT analysis of cellulose-bound peptides (WISE), Myo5 SH3 domain (Dataset S4); format: binding, Saccharomyces cerevisiae; settings: SPOT analysis of cellulose-bound 14-mer yeast proteome peptides, Myo5 SH3 domain; normalized value; mean where the peptide was synthesized more than once

Sequence | The normalized value in BLU units [BLU]
ITDTKLFPGNPNLM | 94.6
KAGSFGAPSSPTSG | 123.7
KAIVWRLPKMPKIK | 515.4
KAPYLVQPNVPEKH | 130.6
KASSMPAPPPPPPP | 10514.9
KAVHLYFPILPHCG | 125.3
KELLLIPPGFPTKN | 122.9
KELNLTGPKVPEDI | 102.4
KEVDLTRPSAPSEP | 132.2
KFFKHLYPAIPILD | 217.0
KFRQMFKPLAPNTR | 1217.4
KFTDMLDPEKPNVI | 262.4
KFVIHNEPIDPSDK | 46.7
KGVLKEYPMRPYGS | 116.8
KIVRRDYPSTPVIV | 366.1
KKNKKKVPLNPLAK | 522.6
KLAILTCPFEPPKP | 173.2
KLALHQYPNFPSEG | 130.3
KLAPLNCPSLPTTN | 211.6
KLDPLGEPFDPNKH | 275.7
KLFVLLPPIDPKDG | 258.2
KLKSLNLPQLPPPK | 674.9

Sequence | The normalized value in BLU units [BLU]
KLPDLKLPPSPVPS | 231.2
KLVKFKLPFLPISD | 974.1
KNIIKYVPWGPPLE | 164.4
KPKMLPIPSKPTLF | 1355.0
KPKVLFHPHWPLYI | 195.5
KPLKFLRPTYPDLC | 149.2
KPLNLSKPISPPPS | 254.3
KPMLHNVPHDPSLP | 412.6
KPPVYRLPPLPRLK | 2305.8
KPSGYYGPNSPLKL | 159.2
KPSLWEAPQNPPYS | 152.4
KQLKKQGPKRPSSA | 468.1
KSYRKADPTNPQGW | 103.0
KTKKKTVPVKPLQL | 358.9
KTVDKGLPMIPTYV | 76.8
KWTIMPHPNRPNAA | 428.7
KYIIKTEPESPEED | 245.5
LAIRLCWPPAPVTL | 154.7
LALLMTDPDAPSRT | 177.5
LASPFHDPILPRRT | 288.3
LDSMKNLPLNPSKK | 268.3

same assay, conditions: SPOT analysis of cellulose-bound peptides probed with Myo5 SH3 domain; normalized value

Sequence | The normalized value in BLU units (SPOT analysis, Myo5 SH3) [BLU]
KEFRFIFPLQPLFI | 749.7
KELIYKQPSGPGLV | 79.3
KELPFTGPSIPFEN | 338.9
KEQNWKHPLLPLLK | 321.0
KESKFGTPEKPLSD | 249.8
KFLIHNEPIDPNDR | 121.7
KFPLMDKPSIPTLR | 431.6
KFTDMQVPKGPVCP | 197.0
KLEDLNEPLSPWIS | 71.1
KLGRFTNPQQPRED | 227.3
KLNCLQIPHLPPSV | 349.8
KLPKLNVPLNPKGK | 304.7
KLPQLPPPPPPPPP | 54143.7
KLWDLSKPSKPLKE | 233.1
KPAVLHYPPIPASA | 183.1
KPPSYPSPAQPPKS | 11899.6
KPPSYPSPVQPPQS | 16459.5
KPSVMKLPPSPKQP | 380.5
KWKSLFPPFFPCDI | 241.7
LAKDLIVPRRPEWN | 117125.4
LEDALHVPTNPEIL | 191.1
LEFSHYAPTAPHVQ | 103.0
LELLLSLPTGPESK | 142.9
LFKRLPVPAPPMDS | 145.1

same assay, conditions: SPOT analysis of membrane-bound peptides, Myo5 SH3 domain; normalized value (see methods)

Sequence | The normalized value in BLU units [BLU]
ISHNKLSPSEPILC | 206.2
ISNRRPVPRRPSQP | 377.4
IYHCKKQPLVPIGC | 293.5
KDEVKLHPPEPKDL | 163.7
KDFSKNAPYNPSEV | 142.6
KDKARGNPEKPPYW | 59.9
KEFFRLTPNQPVGL | 43.8
KFDAKGRPIPPHPD | 53.5
KFFKREYPDIPMIA | 154.6
KIIKKCSPSVPKEE | 242.5
KIVERGPPYPPDLR | 137.7
KKIAKGDPKIPMQN | 720.5
KKIIKDVPGTPSDK | 162.7
KKKKKNGPGAPQGY | 328.8
KKNDRPSPLKPIQH | 340.9
KLHEKYFPDLPKEV | 110.4
KLKIKILPEQPQLE | 261.3
KLNKRVLPSKPKKS | 918.8
KLPKKFPPPTPLLE | 19656.3
KLVLRNVPILPILN | 303.3
KLYYRHRPQKPVRT | 915.7
KNLKKYDPEDPNRR | 207.1

Sequence | The normalized value in BLU units [BLU]
KQKKKPTPTRPYNY | 516.2
KQLMKNLPKIPLLN | 580.1
KRNSKHAPFIPVKP | 381.6
KRRSKSLPITPKSI | 920.9
KRRSKSLPTTPGIR | 592.0
KSIPRTKPNVPPLQ | 343.4
KSLQKFEPRYPKTA | 244.9
KTGRKTFPFLPYQI | 466.0
KTSTKAQPAEPQAE | 166.8
KVIRKGSPKSPAMV | 495.7
KVNFRRIPTGPDSP | 502.6
KVQIKKVPTDPSSS | 191.2
KVSSKYDPDNPNKD | 434.5
KYCFKLVPPQPGSK | 218.8
LAAHKTKPSIPPKK | 248.8
LAPKREAPKPPANT | 116079.9
LDKGKHVPSKPVSN | 200.9
LDTHKESPLRPKVR | 199.3
LEFPKDYPLSPPKL | 134.8
LFGIRNNPFIPITG | 169.8
LGLHKWLPDIPLFE | 167.8
LGPLKYAPHLPFSK | 427.6

same assay, conditions: SPOT analysis of membrane-synthesized peptides probed with Myo5 SH3 domain; normalized value

Sequence | The normalized value in BLU units (SPOT analysis, Myo5 SH3) [BLU]
ITAEKSAPTSPEVY | 94.2
ITRARYMPQDPNIV | 190.2
ITSIRGSPSLPKNK | 370.3
IVNEKRTPALPSNL | 101.8
KAALKYHPDKPTGD | 155.5
KALPKRRPSPPLQS | 1137.8
KALWKIQPYLPEFS | 146.1
KHEPKKSPTTPALA | 726.2
KITKKLGPKLPKAS | 680.7
KKHDKLHPNYPSVK | 406.8
KKHDKLYPKYPSVK | 339.6
KKNPKKSPMGPQGA | 1007.5
KKVIRNYPGHPEGT | 417.8
KMAKKLLPYKPHNS | 707.5
KMSAKNTPKHPVDI | 307.2
KNILKVCPVLPSIL | 117.9
KNLLREIPQVPAFQ | 104.1

Sequence | The normalized value in BLU units (SPOT analysis, Myo5 SH3) [BLU]
KNPTKSPPPPPSPS | 27847.4
KPAGRPIPPAPTHY | 189.4
KQAKRAPPSSPYVV | 295.0
KQRIRKIPGIPLMS | 621.8
KQSKRARPSSPYTV | 271.3
KRKAKAPPPPPPPP | 4025.3
KTRNKPKPLWPQVK | 261.8
KVLIKTLPVLPEAR | 236.7
LAGIRLVPVLPILL | 152.2
LASDKGLPMIPAFV | 79.9
LAYERPLPDLPSTI | 131.9
LDLSKYGPLPPSRA | 154.0
LDPGKNTPGLPEET | 155.6
LDVRRIYPKGPLLV | 231.6
LFDEKVKPQIPQLR | 89.2
LGSEKSCPLAPAVA | 121.9
